One test has as its target EGFR wildtype (Homo sapiens, UniProt P00533). Nature of the test: Biochemical EGFR kinase assay (Lance Ultra TR-FRET), wildtype. The method in brief: (§1)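 Enzyme reactions lasted 1 hour at room temperature with test compounds between 0.003 and 10 μM, followed by 10 mM EDTA quench.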
The target in a further test is EGFR del19/T790M/C797S (Homo sapiens, UniProt P00533, C797S/DEL746-750/T790M). Nature of the test: Biochemical EGFR kinase assay (Lance Ultra TR-FRET), triple mutant del19/T790M/C797S. The method in brief:
as §1

The target in another test is EGFR L858R/T790M/C797S (Homo sapiens, UniProt P00533, C797S/L858R/T790M). Nature of the test: Biochemical EGFR kinase assay (Lance Ultra TR-FRET), triple mutant L858R/T790M/C797S. The method in brief: as §1
EGFR L858R/T790M/C797S, sequence (P00533 25-1210 T790M/C797S/L858R): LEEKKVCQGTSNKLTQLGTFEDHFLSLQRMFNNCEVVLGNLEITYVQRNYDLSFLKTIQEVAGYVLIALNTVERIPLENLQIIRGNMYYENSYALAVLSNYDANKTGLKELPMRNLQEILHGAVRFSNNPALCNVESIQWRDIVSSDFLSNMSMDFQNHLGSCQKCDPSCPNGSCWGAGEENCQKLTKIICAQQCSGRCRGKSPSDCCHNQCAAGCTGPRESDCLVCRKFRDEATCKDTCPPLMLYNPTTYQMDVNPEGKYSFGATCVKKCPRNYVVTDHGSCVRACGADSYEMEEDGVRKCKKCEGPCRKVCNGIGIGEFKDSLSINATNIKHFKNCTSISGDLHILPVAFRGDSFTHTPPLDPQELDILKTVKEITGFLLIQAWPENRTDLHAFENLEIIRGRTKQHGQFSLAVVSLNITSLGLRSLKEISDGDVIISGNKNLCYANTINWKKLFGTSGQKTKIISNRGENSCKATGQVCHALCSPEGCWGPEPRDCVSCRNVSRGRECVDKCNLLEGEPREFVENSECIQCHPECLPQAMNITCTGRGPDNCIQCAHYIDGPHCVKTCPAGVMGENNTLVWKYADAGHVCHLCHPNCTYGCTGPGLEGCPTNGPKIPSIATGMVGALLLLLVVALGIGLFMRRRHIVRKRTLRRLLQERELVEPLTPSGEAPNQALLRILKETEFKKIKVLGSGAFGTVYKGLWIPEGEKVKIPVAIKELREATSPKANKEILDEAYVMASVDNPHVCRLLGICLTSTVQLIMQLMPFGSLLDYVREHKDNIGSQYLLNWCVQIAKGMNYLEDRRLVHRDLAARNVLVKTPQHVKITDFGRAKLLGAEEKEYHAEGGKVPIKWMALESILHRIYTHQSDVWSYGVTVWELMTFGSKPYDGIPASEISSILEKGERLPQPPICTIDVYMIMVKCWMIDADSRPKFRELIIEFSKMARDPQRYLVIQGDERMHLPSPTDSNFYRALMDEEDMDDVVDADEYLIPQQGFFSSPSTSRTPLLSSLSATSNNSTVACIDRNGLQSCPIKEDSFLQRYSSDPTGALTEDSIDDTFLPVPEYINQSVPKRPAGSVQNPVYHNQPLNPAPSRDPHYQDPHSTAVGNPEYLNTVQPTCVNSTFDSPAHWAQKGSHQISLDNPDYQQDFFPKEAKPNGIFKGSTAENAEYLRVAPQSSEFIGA
Another test has as its target EGFR del19/C797S (Homo sapiens, UniProt P00533, C797S/DEL746-750). Nature of the test: Biochemical EGFR kinase assay (Lance Ultra TR-FRET), double mutant del19/C797S. A digest of the protocol: as §1
The next test deals with EGFR L858R/C797S (Homo sapiens, UniProt P00533, C797S/L858R). The test is described as follows: Biochemical EGFR kinase assay (Lance Ultra TR-FRET), double mutant L858R/C797S. A digest of the protocol: as §1
The mark [1] stands for this setting: ATP at Km, read-out: IC50 WT, Km ATP.
Where [2] appears, read: ATP at Km, read-out: IC50 del19/T790M/C797S, Km ATP.
[3] abbreviates: ATP at Km, read-out: IC50 L858R/T790M/C797S, Km ATP.
[4] abbreviates: ATP at Km, read-out: IC50 del19/C797S, Km ATP.
[5] abbreviates: ATP at Km, read-out: IC50 L858R/C797S, Km ATP.
The mark [6] stands for this setting: Km ATP, read-out: IC50 WT (nM) Km ATP.
[7] abbreviates: Km ATP, read-out: IC50 del19/T790M/C797S (nM) Km ATP.
Where [8] appears, read: Km ATP, read-out: IC50 L858R/T790M/C797S (nM) Km ATP.
Setting [9] is: Km ATP, read-out: IC50 del19/C797S (nM) Km ATP.
[10] abbreviates: Km ATP, read-out: IC50 L858R/C797S (nM) Km ATP.
[11] abbreviates: IC50 WT (nM) 100 μM ATP, 100 μM ATP.
[12] abbreviates: IC50 del19/T790M/C797S (nM) 100 μM ATP, 100 μM ATP.
[13] abbreviates: IC50 L858R/T790M/C797S (nM) 100 μM ATP, 100 μM ATP.
Setting [14] is: IC50 del19/C797S (nM) 100 μM ATP, 100 μM ATP.
[15] abbreviates: IC50 L858R/C797S (nM) 100 μM ATP, 100 μM ATP.
The mark [16] stands for this setting: IC50 del19/T790M/C797S, 100 μM ATP.
The mark [17] stands for this setting: IC50 L858R/T790M/C797S, 100 μM ATP.

Structures are written as SMILES. pIC50: −log10 of the molar value. Like-named read-outs stand apart in the source and are kept apart here.

EGFR del19/C797S, sequence (P00533 with tags, fused parts or gaps DEL746-750/C797S): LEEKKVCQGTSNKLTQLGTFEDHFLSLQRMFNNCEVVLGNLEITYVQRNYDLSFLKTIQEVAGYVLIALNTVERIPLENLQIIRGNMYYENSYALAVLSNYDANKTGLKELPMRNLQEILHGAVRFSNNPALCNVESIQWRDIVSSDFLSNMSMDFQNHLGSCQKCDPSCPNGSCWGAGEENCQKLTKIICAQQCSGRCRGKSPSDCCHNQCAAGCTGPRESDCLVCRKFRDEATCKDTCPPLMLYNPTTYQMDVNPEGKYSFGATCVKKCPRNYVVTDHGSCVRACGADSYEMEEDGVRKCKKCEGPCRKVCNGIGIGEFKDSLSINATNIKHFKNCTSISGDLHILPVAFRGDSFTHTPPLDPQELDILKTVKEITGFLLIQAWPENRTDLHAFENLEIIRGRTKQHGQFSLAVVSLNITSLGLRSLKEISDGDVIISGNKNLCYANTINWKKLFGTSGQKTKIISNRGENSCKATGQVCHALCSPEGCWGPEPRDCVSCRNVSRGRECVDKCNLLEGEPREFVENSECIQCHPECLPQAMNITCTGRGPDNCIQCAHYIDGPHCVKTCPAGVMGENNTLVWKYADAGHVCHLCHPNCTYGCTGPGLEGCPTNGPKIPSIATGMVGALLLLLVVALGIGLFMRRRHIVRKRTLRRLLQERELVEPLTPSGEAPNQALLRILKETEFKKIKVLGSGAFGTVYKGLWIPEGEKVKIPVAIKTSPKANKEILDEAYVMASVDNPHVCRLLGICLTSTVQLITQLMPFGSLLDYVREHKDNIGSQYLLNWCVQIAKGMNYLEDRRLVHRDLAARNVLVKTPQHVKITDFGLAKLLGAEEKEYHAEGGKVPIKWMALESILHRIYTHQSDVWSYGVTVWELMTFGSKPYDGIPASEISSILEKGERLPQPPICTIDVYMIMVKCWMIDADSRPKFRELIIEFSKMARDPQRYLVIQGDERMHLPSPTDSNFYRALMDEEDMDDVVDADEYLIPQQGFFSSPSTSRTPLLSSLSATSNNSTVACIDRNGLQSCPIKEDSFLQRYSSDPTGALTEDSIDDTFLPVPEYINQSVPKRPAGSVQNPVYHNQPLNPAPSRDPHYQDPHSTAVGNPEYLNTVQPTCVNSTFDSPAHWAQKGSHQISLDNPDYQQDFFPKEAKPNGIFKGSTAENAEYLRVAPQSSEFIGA
EGFR wildtype, sequence (P00533 25-1210): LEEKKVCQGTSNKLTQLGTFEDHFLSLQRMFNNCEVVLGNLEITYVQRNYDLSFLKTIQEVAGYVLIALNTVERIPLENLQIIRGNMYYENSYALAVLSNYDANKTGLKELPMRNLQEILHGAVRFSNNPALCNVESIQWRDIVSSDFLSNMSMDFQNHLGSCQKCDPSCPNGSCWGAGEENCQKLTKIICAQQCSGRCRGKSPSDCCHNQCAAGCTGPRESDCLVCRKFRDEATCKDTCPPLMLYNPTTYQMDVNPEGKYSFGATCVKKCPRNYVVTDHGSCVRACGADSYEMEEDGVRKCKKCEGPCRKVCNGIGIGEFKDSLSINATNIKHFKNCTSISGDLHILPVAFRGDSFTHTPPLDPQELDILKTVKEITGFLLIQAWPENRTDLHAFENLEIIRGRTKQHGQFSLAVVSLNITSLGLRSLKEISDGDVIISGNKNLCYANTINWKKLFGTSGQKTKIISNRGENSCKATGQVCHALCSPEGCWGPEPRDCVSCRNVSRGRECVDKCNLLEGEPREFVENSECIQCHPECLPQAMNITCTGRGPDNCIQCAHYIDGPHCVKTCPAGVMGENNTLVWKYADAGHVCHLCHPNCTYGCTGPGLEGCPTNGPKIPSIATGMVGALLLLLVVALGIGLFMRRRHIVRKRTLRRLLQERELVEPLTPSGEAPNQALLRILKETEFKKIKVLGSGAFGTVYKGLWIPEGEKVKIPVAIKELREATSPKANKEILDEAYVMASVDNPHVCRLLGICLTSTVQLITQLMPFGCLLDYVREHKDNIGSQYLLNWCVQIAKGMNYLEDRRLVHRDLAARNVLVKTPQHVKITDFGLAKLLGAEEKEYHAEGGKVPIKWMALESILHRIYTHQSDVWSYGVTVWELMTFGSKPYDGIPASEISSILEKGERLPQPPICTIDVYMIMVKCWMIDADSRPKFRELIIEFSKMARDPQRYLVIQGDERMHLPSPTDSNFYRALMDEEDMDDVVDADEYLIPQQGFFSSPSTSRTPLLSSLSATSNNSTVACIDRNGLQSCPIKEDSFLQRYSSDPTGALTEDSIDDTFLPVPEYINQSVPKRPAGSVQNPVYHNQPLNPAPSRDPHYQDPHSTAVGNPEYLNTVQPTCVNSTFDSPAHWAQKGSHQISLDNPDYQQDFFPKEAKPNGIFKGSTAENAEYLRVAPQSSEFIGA
EGFR del19/T790M/C797S, sequence (P00533 with tags, fused parts or gaps DEL746-750/T790M/C797S): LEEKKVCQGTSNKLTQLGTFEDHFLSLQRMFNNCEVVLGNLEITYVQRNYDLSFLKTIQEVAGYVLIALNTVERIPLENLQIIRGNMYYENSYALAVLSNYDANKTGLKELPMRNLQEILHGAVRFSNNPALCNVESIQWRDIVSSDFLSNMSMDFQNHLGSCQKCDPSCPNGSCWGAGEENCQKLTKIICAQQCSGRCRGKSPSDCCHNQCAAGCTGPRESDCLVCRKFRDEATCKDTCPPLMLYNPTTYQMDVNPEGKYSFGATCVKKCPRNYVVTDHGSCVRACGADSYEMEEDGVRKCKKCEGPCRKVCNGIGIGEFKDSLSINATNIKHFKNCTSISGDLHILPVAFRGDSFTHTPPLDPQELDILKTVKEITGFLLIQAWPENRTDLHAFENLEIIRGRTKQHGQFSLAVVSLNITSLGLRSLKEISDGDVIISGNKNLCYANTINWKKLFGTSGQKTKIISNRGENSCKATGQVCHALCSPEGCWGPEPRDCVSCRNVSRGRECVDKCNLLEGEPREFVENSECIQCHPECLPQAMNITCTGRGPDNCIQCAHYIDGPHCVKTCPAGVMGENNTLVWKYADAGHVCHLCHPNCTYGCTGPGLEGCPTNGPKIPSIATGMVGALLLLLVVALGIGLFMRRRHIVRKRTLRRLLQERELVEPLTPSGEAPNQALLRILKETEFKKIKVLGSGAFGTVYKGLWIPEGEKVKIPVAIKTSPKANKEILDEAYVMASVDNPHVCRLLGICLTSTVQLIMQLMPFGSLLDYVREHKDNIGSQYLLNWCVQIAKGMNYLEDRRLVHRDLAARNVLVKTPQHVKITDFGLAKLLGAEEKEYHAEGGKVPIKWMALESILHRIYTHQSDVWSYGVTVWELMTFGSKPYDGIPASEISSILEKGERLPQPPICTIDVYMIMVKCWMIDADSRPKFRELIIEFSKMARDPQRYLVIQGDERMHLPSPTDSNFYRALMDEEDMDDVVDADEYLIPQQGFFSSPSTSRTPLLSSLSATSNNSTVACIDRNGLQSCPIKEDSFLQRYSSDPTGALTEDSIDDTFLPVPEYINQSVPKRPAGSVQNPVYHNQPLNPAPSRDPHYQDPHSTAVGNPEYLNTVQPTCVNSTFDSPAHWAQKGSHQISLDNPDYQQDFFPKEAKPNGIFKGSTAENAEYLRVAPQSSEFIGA

For `CC(O)(c1ccc(-c2cnc(Nc3ccnc(-c4cnn(S(=O)(=O)C5CC5)c4)n3)cc2NC2CCC(F)CC2)nc1)C(F)(F)F` (stereo not shown) [Example 265, 2-(6′-((2-(1-(Cyclopropylsulfonyl)-1H-pyrazol-4-yl)pyrimidin-4-yl)amino)-4′-(((1s,4s)-4-fluorocyclohexyl)amino)-[2,3′-bipyridin]-5-yl)-1,1,1-trifluoropropan-2-ol], the pIC50 is 6.44 at EGFR wildtype (setting [1]); 7.51 at EGFR del19/T790M/C797S (setting [2]); 7.66 on EGFR L858R/T790M/C797S (setting [3]); 7.77 at EGFR del19/C797S (setting [4]); 7.07 on EGFR L858R/C797S (setting [5]).
Consider `CN1CCC(Oc2cnc(-c3cnc(Nc4ccnc(-c5cnn(S(=O)(=O)C6CC6)c5)n4)cc3N[C@H]3CC[C@@H](F)CC3)cn2)CC1` [Example 144, N^2-(2-(1-(Cyclopropylsulfonyl)-1H-pyrazol-4-yl)pyrimidin-4-yl)-N^4-((1s,4s)-4-fluorocyclohexyl)-5-(5-((1-methylpiperidin-4-yl)oxy)pyrazin-2-yl)pyridine-2,4-diamine], for which the IC50 was found to be 26.3 nM on EGFR wildtype (setting [6]); 0.3 nM on EGFR del19/T790M/C797S (setting [7]); 0.1 nM at EGFR L858R/T790M/C797S (setting [8]); 2.2 nM on EGFR del19/C797S (setting [9]); 1.2 nM on EGFR L858R/C797S (setting [10]).
As to `O=S(=O)(C1CC1)n1cc(-c2nccc(Nc3cc(NC4CCC(F)CC4)c(-c4cnc(OC5CCOC5)cn4)cn3)n2)cn1` (stereo not shown) [Example 152, N^2-(2-(1-(Cyclopropylsulfonyl)-1H-pyrazol-4-yl)pyrimidin-4-yl)-N^4-((1s,4s)-4-fluorocyclohexyl)-5-(5-((tetrahydrofuran-3-yl)oxy)pyrazin-2-yl)pyridine-2,4-diamine], the pIC50 on EGFR wildtype (setting [1]) is < 5.00; at EGFR del19/T790M/C797S (setting [2]) it was 9.30; at EGFR L858R/T790M/C797S (setting [3]), 10.00; at EGFR del19/C797S (setting [4]), 6.67; at EGFR L858R/C797S (setting [5]), 7.88.
For `CC(C)(O)[C@H]1CC[C@@H](Nc2cc(Nc3ccnc(-c4cnn(S(=O)(=O)C5CC5)c4)n3)ncc2-c2cc(N3CCC(F)(F)CC3)ccn2)CC1` [Example 103, 2-((1s,4s)-4-((6′-((2-(1-(Cyclopropylsulfonyl)-1H-pyrazol-4-yl)pyrimidin-4-yl)amino)-4-(4,4-difluoropiperidin-1-yl)-[2,3′-bipyridin]-4′-yl)amino)cyclohexyl)propan-2-ol], the IC50 was > 10000 nM on EGFR wildtype (setting [11]); 6.6 nM against EGFR del19/T790M/C797S (setting [12]); 3.9 nM against EGFR L858R/T790M/C797S (setting [13]); 66.5 nM at EGFR del19/C797S (setting [14]); 654 nM on EGFR L858R/C797S (setting [15]).
For `C[C@]1(O)CC[C@@H](Nc2cc(Nc3ccnc(-c4cnn(S(=O)(=O)C5CC5)c4)n3)ncc2-c2ccc(N3CCC(O)CC3)cn2)CC1` [Example 49, 1-(6′-((2-(1-(Cyclopropylsulfonyl)-1H-pyrazol-4-yl)pyrimidin-4-yl)amino)-4′-(((1s,4s)-4-hydroxy-4-methylcyclohexyl)amino)-[2,3′-bipyridin]-5-yl) piperidin-4-ol], the IC50 against EGFR wildtype (setting [11]) was 294 nM; on EGFR wildtype (setting [6]), 0.5 nM; against EGFR del19/T790M/C797S (setting [12]), 0.3 nM; at EGFR del19/T790M/C797S (setting [7]), 0.3 nM; on EGFR L858R/T790M/C797S (setting [13]) it was 0.3 nM; at EGFR L858R/T790M/C797S (setting [8]), 0.1 nM. The IC50 against EGFR del19/C797S (setting [14]) is 0.8 nM; on EGFR del19/C797S (setting [9]), 0.5 nM; against EGFR L858R/C797S (setting [15]) it was 2.4 nM; on EGFR L858R/C797S (setting [10]) it was 0.3 nM.
In the case of `CN1CCN(Cc2ccc(-c3cnc(Nc4ccnc(-c5cnn(S(=O)(=O)C6CC6)c5)n4)cc3N[C@H]3CC[C@@](C)(O)CC3)nc2)CC1` [Example 9, (1s,4s)-4-((6′-((2-(1-(Cyclopropylsulfonyl)-1H-pyrazol-4-yl)pyrimidin-4-yl)amino)-5-((4-methylpiperazin-1-yl)methyl)-[2,3′-bipyridin]-4′-yl)amino)-1-methylcyclohexan-1-ol], the IC50 was determined as 167 nM on EGFR wildtype (setting [11]); 1 nM at EGFR wildtype (setting [6]); 0.1 nM on EGFR del19/T790M/C797S (setting [12]); 0.3 nM against EGFR L858R/T790M/C797S (setting [13]); 0.1 nM at EGFR L858R/T790M/C797S (setting [8]); 0.7 nM on EGFR del19/C797S (setting [14]). Moreover, the IC50 on EGFR del19/C797S (setting [9]) stood at 0.2 nM; at EGFR L858R/C797S (setting [15]), 1.9 nM; at EGFR L858R/C797S (setting [10]), 0.2 nM.
With `C[C@]1(O)CC[C@@H](Nc2cc(Nc3ccnc(-c4cnn(S(=O)(=O)C5CC5)c4)n3)ncc2-c2cc(C(F)F)ccn2)CC1` [Example 76, (1s,4s)-4-((6′-((2-(1-(Cyclopropylsulfonyl)-1H-pyrazol-4-yl)pyrimidin-4-yl)amino)-4-(difluoromethyl)-[2,3′-bipyridin]-4′-yl)amino)-1-methylcyclohexan-1-ol], the IC50 against EGFR wildtype (setting [11]) was > 10000 nM; at EGFR wildtype (setting [6]) it was 8.1 nM; on EGFR del19/T790M/C797S (setting [12]), 1 nM; on EGFR del19/T790M/C797S (setting [7]) it was 2 nM; against EGFR L858R/T790M/C797S (setting [13]), 0.8 nM; at EGFR L858R/T790M/C797S (setting [8]), 0.9 nM. For the same compound, the IC50 was determined as 2 nM against EGFR del19/C797S (setting [14]), 1.6 nM at EGFR del19/C797S (setting [9]), 14.5 nM against EGFR L858R/C797S (setting [15]) and 2.1 nM on EGFR L858R/C797S (setting [10]).
For `COC(c1ccc(-c2cnc(Nc3ccnc(-c4cnn(S(=O)(=O)C5CC5)c4)n3)cc2NC2CCC(C)(O)CC2)nc1)C(F)(F)F` (stereo not shown) [Example 260, (1s,4s)-4-((6′-((2-(1-(Cyclopropylsulfonyl)-1H-pyrazol-4-yl)pyrimidin-4-yl)amino)-5-(2,2,2-trifluoro-1-methoxyethyl)-[2,3′-bipyridin]-4′-yl)amino)-1-methylcyclohexan-1-ol], the pIC50 at EGFR wildtype (setting [1]) was 8.11; at EGFR del19/T790M/C797S (setting [2]) it was 8.16; at EGFR L858R/T790M/C797S (setting [3]), 8.39; at EGFR del19/C797S (setting [4]), 7.97; on EGFR L858R/C797S (setting [5]), 8.06.
For the compound `O=S(=O)(C1CC1)n1cc(-c2nccc(Nc3cc(N[C@H]4CC[C@@H](CO)CC4)c(-c4ccc(OCCO)cn4)cn3)n2)cn1` [Example 206, 2-((6′-((2-(1-(Cyclopropylsulfonyl)-1H-pyrazol-4-yl)pyrimidin-4-yl)amino)-4′-(((1s,4s)-4-(hydroxymethyl)cyclohexyl)amino)-[2,3′-bipyridin]-5-yl)oxy)ethan-1-ol], the pIC50 was 8.92 on EGFR wildtype (setting [1]); 6.46 at EGFR wildtype (IC50 WT, 100 μM ATP); 9.22 at EGFR del19/T790M/C797S (setting [2]); 9.05 on EGFR del19/T790M/C797S (setting [16]); 9.52 on EGFR L858R/T790M/C797S (setting [3]); 9.40 against EGFR L858R/T790M/C797S (setting [17]). Moreover, the pIC50 on EGFR del19/C797S (setting [4]) was 9.15; on EGFR del19/C797S (IC50 del19/C797S, 100 μM ATP), 9.22; on EGFR L858R/C797S (setting [5]), 9.40; against EGFR L858R/C797S (IC50 L858R/C797S, 100 μM ATP) it was 8.62.
As for `C[C@]1(O)CC[C@@H](Nc2cc(Nc3ccnc(-c4cnn(S(=O)(=O)C5CC5)c4)n3)ncc2-c2ccc(OCCO)cn2)CC1` [Example 205, (1s,4s)-4-((6′-((2-(1-(Cyclopropylsulfonyl)-1H-pyrazol-4-yl)pyrimidin-4-yl)amino)-5-(2-hydroxyethoxy)-[2,3′-bipyridin]-4′-yl)amino)-1-methylcyclohexan-1-ol], the pIC50 is 8.70 on EGFR wildtype (setting [1]); 5.84 against EGFR wildtype (IC50 WT, 100 μM ATP); 9.52 at EGFR del19/T790M/C797S (setting [2]); 9.15 on EGFR del19/T790M/C797S (setting [16]); 9.70 on EGFR L858R/T790M/C797S (setting [3]); 9.70 on EGFR L858R/T790M/C797S (setting [17]). In addition, the pIC50 at EGFR del19/C797S (setting [4]) is 9.15; on EGFR del19/C797S (IC50 del19/C797S, 100 μM ATP) it was 9.22; on EGFR L858R/C797S (setting [5]), 9.40; against EGFR L858R/C797S (IC50 L858R/C797S, 100 μM ATP) it was 8.46.
`O=S(=O)(C1CC1)n1cc(-c2nccc(Nc3cc(N[C@H]4CC[C@@H](CO)CC4)c(-c4cnc(OC(F)F)cn4)cn3)n2)cn1` [Example 129, ((1s,4s)-4-((2-((2-(1-(Cyclopropylsulfonyl)-1H-pyrazol-4-yl)pyrimidin-4-yl)amino)-5-(5-(difluoromethoxy)pyrazin-2-yl)pyridin-4-yl)amino)cyclohexyl)methanol]: the IC50 at EGFR wildtype (setting [6]) worked out at 116 nM; on EGFR del19/T790M/C797S (setting [7]) it was 1.4 nM; on EGFR L858R/T790M/C797S (setting [8]), 0.5 nM; on EGFR del19/C797S (setting [9]) it was 12.6 nM; at EGFR L858R/C797S (setting [10]), 12.9 nM.

Values taken from US12258328B2, “6-membered heteroaryl-containing aminopyridine compounds as EGFR inhibitors” (YUHAN CORPORATION, priority 2021, dated 2025).
